Patent US20080119508A1, “Multi-Route Administration Of Immune Response Modifier Compounds” (3M INNOVATIVE PROPERTIES COMPANY, priority 2004, published 2008)

Tested on: mouse colon carcinoma-26 cells (MC26) expressing luciferase
Assay: MC26-luciferase intradermal tumor model, in vivo photon counts (tumor growth index)
Parameters: species or system Balb/c mice
Conditions: combination of topical 5% IRM1 (30 microliters at tumor site) and subcutaneous IRM1 10 mg/kg, compared with single routes and vehicles; day 6 results in FIG. 1
Procedure: Mice were divided into five groups: topical vehicle, subcutaneous vehicle (SQ vehicle), IRM1 topical (topical IRM1), IRM1 subcutaneous (SQ IRM1), and IRM1 topical and subcutaneous (topical+SQ IRM1). Eighteen hours after injection of the cells, 30 microliters of vehicle or 5% IRM1 topical formulations, described in Table 3, was applied to the tumor site. Six hours later, mice were injected subcutaneously with 10 millograms per kilogram of IRM1 in a 1 milligram per milliliter IRM1, 0.03M citrate buffered saline solution or a vehicle 0.03M citrate buffered saline solution. On days 1, 5, and 6 mice were anesthetized with vaporized 3% isoflurane and in vivo photon counts of luciferin were measured using a Xenogen IVIS imaging system (Alameda, Calif.) following the manufacturer's protocol. The tumor growth index for each treatment group was calculated by dividing each group's day 5 or day 6 tumor photon counts by their day 1 tumor photon counts.

CCc1nc2c(N)nc3ccccc3c2n1CCCCNS(C)(=O)=O [IRM1, N-[4-(4-amino-2-ethyl-1H-imidazo[4,5-c]quinolin-1-yl)butyl]methanesulfonamide]
tumor growth index (day 5 or day 6 tumor photon counts divided by day 1 tumor photon counts): surprising benefit
